Assay results as given in ChEMBL document CHEMBL1126865, “Structure-activity relationship within a series of pyrazolidinone antibacterial agents. 2. Effect of side-chain modification on in vitro activity and pharmacokinetic parameters” (J Med Chem, 1993).
In brackets after ≈: the same amount, converted by molar mass.

Columns and labels:
Format in all cases: functional
[1] = tested on: Staphylococcus epidermidis; assay: In vitro antibacterial activity against Staphylococcus epidermidis 222
Staphylococcus aureus = assay: In vitro antibacterial activity against Staphylococcus aureus X1.1
Klebsiella aerogenes = assay: In vitro antibacterial activity against Enterobacter aerogenes C32
Escherichia coli = assay: In vitro antibacterial activity against Escherichia coli EC14
Pseudomonas aeruginosa = assay: In vitro antibacterial activity against Pseudomonas PS72
Haemophilus influenzae = assay: In vitro antibacterial activity against Haemophilus influenza C.L
Streptococcus pneumoniae = assay: In vitro antibacterial activity against Streptococcus pneumoniae PARK
Klebsiella pneumoniae = assay: In vitro antibacterial activity against Klebsiella X26

Structure (SMILES)	MIC [1] [µg/mL]	MIC (Staphylococcus aureus) [µg/mL]	MIC (Klebsiella aerogenes) [µg/mL]	MIC (Escherichia coli) [µg/mL]	MIC (Pseudomonas aeruginosa) [µg/mL]	MIC (Haemophilus influenzae) [µg/mL]	MIC (Streptococcus pneumoniae) [µg/mL]	MIC (Klebsiella pneumoniae) [µg/mL]
CCCO/N=C(/C(=O)N[C@H]1CN2CC(S(C)(=O)=O)=C(C(=O)O)N2C1=O)c1csc(N)n1	16 (≈ 33.9 µM)	8 (≈ 16.9 µM)	0.25 (≈ 0.529 µM)	0.125 (≈ 0.265 µM)	128 (≈ 271 µM)	0.125 (≈ 0.265 µM)	0.125 (≈ 0.265 µM)	0.015 (≈ 0.0317 µM)
CCS(=O)(=O)C1=C(C(=O)O)N2C(=O)[C@@H](NC(=O)/C(=N/OCC3CC3)c3csc(N)n3)CN2C1	32 (≈ 64.2 µM)	16 (≈ 32.1 µM)	0.25 (≈ 0.501 µM)	0.06 (≈ 0.12 µM)	> 128	0.125 (≈ 0.251 µM)	0.06 (≈ 0.12 µM)	0.015 (≈ 0.0301 µM)
Nc1nc(/C(=N\OCCCl)C(=O)N[C@H]2CN3CC(S(=O)(=O)c4ccccc4)=C(C(=O)O)N3C2=O)cs1	32 (≈ 57.7 µM)	16 (≈ 28.8 µM)	4 (≈ 7.21 µM)	1 (≈ 1.8 µM)	> 128	0.25 (≈ 0.45 µM)	0.06 (≈ 0.108 µM)	0.06 (≈ 0.108 µM)
CCS(=O)(=O)C1=C(C(=O)O)N2C(=O)[C@@H](NC(=O)/C(=N/OCCF)c3csc(N)n3)CN2C1	32 (≈ 65.2 µM)	16 (≈ 32.6 µM)	0.125 (≈ 0.255 µM)	0.06 (≈ 0.122 µM)	> 128	0.25 (≈ 0.51 µM)	0.125 (≈ 0.255 µM)	0.03 (≈ 0.0612 µM)
N#CC1=C(C(=O)O)N2C(=O)[C@@H](NC(=O)/C(=N/OCCCl)c3csc(N)n3)CN2C1	16 (≈ 36.4 µM)	32 (≈ 72.8 µM)	1 (≈ 2.27 µM)	0.25 (≈ 0.568 µM)	> 128	0.5 (≈ 1.14 µM)	0.5 (≈ 1.14 µM)	0.125 (≈ 0.284 µM)
CS(=O)(=O)C1=C(C(=O)O)N2C(=O)[C@@H](NC(=O)/C(=N/OCCCCCl)c3csc(N)n3)CN2C1	32 (≈ 61.4 µM)	32 (≈ 61.4 µM)	2 (≈ 3.84 µM)	1 (≈ 1.92 µM)	> 128	1 (≈ 1.92 µM)	0.25 (≈ 0.48 µM)	0.125 (≈ 0.24 µM)
CCCCS(=O)(=O)C1=C(C(=O)O)N2C(=O)[C@@H](NC(=O)/C(=N/OCCCl)c3csc(N)n3)CN2C1	16 (≈ 29.9 µM)	8 (≈ 15 µM)	1 (≈ 1.87 µM)	0.5 (≈ 0.935 µM)	> 128	0.5 (≈ 0.935 µM)	0.125 (≈ 0.234 µM)	0.03 (≈ 0.0561 µM)
CCCCO/N=C(/C(=O)N[C@H]1CN2CC(C#N)=C(C(=O)O)N2C1=O)c1csc(N)n1	16 (≈ 36.9 µM)	16 (≈ 36.9 µM)	2 (≈ 4.61 µM)	1 (≈ 2.31 µM)	> 128	0.125 (≈ 0.288 µM)	0.125 (≈ 0.288 µM)	0.06 (≈ 0.138 µM)
CS(=O)(=O)C1=C(C(=O)O)N2C(=O)[C@@H](NC(=O)/C(=N/OCCBr)c3csc(N)n3)CN2C1	8 (≈ 14.9 µM)	8 (≈ 14.9 µM)	0.125 (≈ 0.233 µM)	0.125 (≈ 0.233 µM)	> 128	0.125 (≈ 0.233 µM)	0.125 (≈ 0.233 µM)	0.03 (≈ 0.0558 µM)
CCCS(=O)(=O)C1=C(C(=O)O)N2C(=O)[C@@H](NC(=O)/C(=N/OCCF)c3csc(N)n3)CN2C1	32 (≈ 63.4 µM)	16 (≈ 31.7 µM)	0.25 (≈ 0.496 µM)	0.125 (≈ 0.248 µM)	> 128	0.125 (≈ 0.248 µM)	0.125 (≈ 0.248 µM)	0.03 (≈ 0.0595 µM)

Results, then the molecule that gave them:

MIC [1] [µg/mL]	MIC (Staphylococcus aureus) [µg/mL]	MIC (Klebsiella aerogenes) [µg/mL]	MIC (Escherichia coli) [µg/mL]	MIC (Pseudomonas aeruginosa) [µg/mL]	MIC (Haemophilus influenzae) [µg/mL]	MIC (Streptococcus pneumoniae) [µg/mL]	MIC (Klebsiella pneumoniae) [µg/mL]	Structure (SMILES)
32 (≈ 62.8 µM)	16 (≈ 31.4 µM)	2 (≈ 3.93 µM)	1 (≈ 1.96 µM)	128 (≈ 251 µM)	0.5 (≈ 0.981 µM)	4 (≈ 7.85 µM)	0.5 (≈ 0.981 µM)	CCN1CCN(C(=O)N[C@@H](C(=O)N[C@H]2CN3CC(C#N)=C(C(=O)O)N3C2=O)c2ccccc2)C(=O)C1=O
> 128	> 128	0.25 (≈ 0.512 µM)	0.06 (≈ 0.123 µM)	128 (≈ 262 µM)	1 (≈ 2.05 µM)	2 (≈ 4.09 µM)	0.125 (≈ 0.256 µM)	CS(=O)(=O)C1=C(C(=O)O)N2C(=O)[C@@H](NC(=O)/C(=N/OCC(=O)O)c3csc(N)n3)CN2C1
32 (≈ 59.2 µM)	16 (≈ 29.6 µM)	1 (≈ 1.85 µM)	0.25 (≈ 0.463 µM)	> 128	0.25 (≈ 0.463 µM)	0.125 (≈ 0.231 µM)	0.06 (≈ 0.111 µM)	CCCS(=O)(=O)C1=C(C(=O)O)N2C(=O)[C@@H](NC(=O)/C(=N/OCC(F)(F)F)c3csc(N)n3)CN2C1
128 (≈ 273 µM)	64 (≈ 136 µM)	0.5 (≈ 1.07 µM)	0.25 (≈ 0.533 µM)	> 128	2 (≈ 4.26 µM)	0.25 (≈ 0.533 µM)	0.25 (≈ 0.533 µM)	CS(=O)(=O)C1=C(C(=O)O)N2C(=O)[C@@H](NC(=O)/C(=N/OCC#N)c3csc(N)n3)CN2C1
16 (≈ 32.6 µM)	8 (≈ 16.3 µM)	0.125 (≈ 0.255 µM)	0.03 (≈ 0.0612 µM)	128 (≈ 261 µM)	0.125 (≈ 0.255 µM)	0.06 (≈ 0.122 µM)	0.03 (≈ 0.0612 µM)	CS(=O)(=O)C1=C(C(=O)O)N2C(=O)[C@@H](NC(=O)/C(=N/OCCCF)c3csc(N)n3)CN2C1
16 (≈ 37.8 µM)	32 (≈ 75.6 µM)	0.125 (≈ 0.295 µM)	0.03 (≈ 0.0709 µM)	128 (≈ 302 µM)	0.25 (≈ 0.59 µM)	0.25 (≈ 0.59 µM)	0.03 (≈ 0.0709 µM)	N#CC1=C(C(=O)O)N2C(=O)[C@@H](NC(=O)/C(=N/OCCF)c3csc(N)n3)CN2C1
